In ChEMBL document CHEMBL3817755, “Design, synthesis and biological evaluation of indazolepyrimidine based derivatives as anticancer agents with anti-angiogenic and antiproliferative activities” (Medchemcomm, 2016):

What was measured:
Assay type in all cases: functional
[1] = Growth inhibition of human PC3 cells at 10 uM after 48 hrs by SRB assay; details: PC-3, 48 h, read-out: GI
A498 = test: Growth inhibition of human A498 cells at 10 uM after 48 hrs by SRB assay; details: A498, 48 h, read-out: GI
NCI-H23 = test: Growth inhibition of human NCI-H23 cells at 10 uM after 48 hrs by SRB assay; details: NCI-H23, 48 h, read-out: GI
T47D = test: Growth inhibition of human T47D cells at 10 uM after 48 hrs by SRB assay; details: read-out: GI
MDA-MB-435 = test: Growth inhibition of human MDA-MB-435 cells at 10 uM after 48 hrs by SRB assay; details: MDA-MB-435, 48 h, read-out: GI
EKVX = test: Growth inhibition of human EKVX cells at 10 uM after 48 hrs by SRB assay; details: read-out: GI
[2] = Growth inhibition of human UACC257 cells at 10 uM after 48 hrs by SRB assay; details: UACC-257, 48 h, read-out: GI
NCI-H460 = test: Growth inhibition of human NCI-H460 cells at 10 uM after 48 hrs by SRB assay; details: NCI-H460, 48 h, read-out: GI
[3] = Growth inhibition of human SNB19 cells at 10 uM after 48 hrs by SRB assay; details: SNB-19, 48 h, read-out: GI
[4] = Growth inhibition of human HCC2998 cells at 10 uM after 48 hrs by SRB assay; details: HCC 2998, 48 h, read-out: GI
[5] = Growth inhibition of human NCI-ADR-RES cells at 10 uM after 48 hrs by SRB assay; details: read-out: GI
MDA-MB-468 = test: Growth inhibition of human MDA-MB-468 cells at 10 uM after 48 hrs by SRB assay; details: MDA-MB-468, 48 h, read-out: GI
[6] = Growth inhibition of human HCT15 cells at 10 uM after 48 hrs by SRB assay; details: HCT-15, 48 h, read-out: GI
KM12 = test: Growth inhibition of human KM12 cells at 10 uM after 48 hrs by SRB assay; details: KM12, 48 h, read-out: GI
[7] = Growth inhibition of human HOP62 cells at 10 uM after 48 hrs by SRB assay; details: HOP-62, 48 h, read-out: GI
[8] = Growth inhibition of human OVCAR4 cells at 10 uM after 48 hrs by SRB assay; details: OVCAR-4, 48 h, read-out: GI
[9] = Growth inhibition of human RXF393 cells at 10 uM after 48 hrs by SRB assay; details: RXF 393, 48 h, read-out: GI
[10] = Growth inhibition of human DU145 cells at 10 uM after 48 hrs by SRB assay; details: DU-145, 48 h, read-out: GI
ACHN = test: Growth inhibition of human ACHN cells at 10 uM after 48 hrs by SRB assay; details: read-out: GI
M14 = test: Growth inhibition of human M14 cells at 10 uM after 48 hrs by SRB assay; details: M14, 48 h, read-out: GI
SK-MEL-28 = test: Growth inhibition of human SK-MEL-28 cells at 10 uM after 48 hrs by SRB assay; details: SK-MEL-28, 48 h, read-out: GI
[11] = Growth inhibition of human SNB75 cells at 10 uM after 48 hrs by SRB assay; details: SNB-75, 48 h, read-out: GI
NCI-H322M = test: Growth inhibition of human NCI-H322M cells at 10 uM after 48 hrs by SRB assay; details: read-out: GI
[12] = Growth inhibition of human MOLT4 cells at 10 uM after 48 hrs by SRB assay; details: MOLT-4, 48 h, read-out: GI
Malme-3M = test: Growth inhibition of human MALME-3M cells at 10 uM after 48 hrs by SRB assay; details: read-out: GI
SK-MEL-5 = test: Growth inhibition of human SK-MEL-5 cells at 10 uM after 48 hrs by SRB assay; details: SK-MEL-5, 48 h, read-out: GI
[13] = Growth inhibition of human UO31 cells at 10 uM after 48 hrs by SRB assay; details: UO-31, 48 h, read-out: GI
SR = test: Growth inhibition of human SR cells at 10 uM after 48 hrs by SRB assay; details: read-out: GI
[14] = Growth inhibition of human OVCAR8 cells at 10 uM after 48 hrs by SRB assay; details: OVCAR-8, 48 h, read-out: GI
[15] = Growth inhibition of human HL-60(TB) cells at 10 uM after 48 hrs by SRB assay; details: HL-60, 48 h, read-out: GI
[16] = Growth inhibition of human SF539 cells at 10 uM after 48 hrs by SRB assay; details: SF-539, 48 h, read-out: GI
[17] = Growth inhibition of human UACC62 cells at 10 uM after 48 hrs by SRB assay; details: UACC-62, 48 h, read-out: GI
SK-MEL-2 = test: Growth inhibition of human SK-MEL-2 cells at 10 uM after 48 hrs by SRB assay; details: SK-MEL-2, 48 h, read-out: GI
[18] = Growth inhibition of human RPMI8226 cells at 10 uM after 48 hrs by SRB assay; details: RPMI-8226, 48 h, read-out: GI
[19] = Growth inhibition of human IGROV1 cells at 10 uM after 48 hrs by SRB assay; details: IGROV-1, 48 h, read-out: GI
MCF7 = test: Growth inhibition of human MCF7 cells at 10 uM after 48 hrs by SRB assay; details: MCF7, 48 h, read-out: GI
MDA-MB-231 = test: Growth inhibition of human MDA-MB-231 cells at 10 uM after 48 hrs by SRB assay; details: MDA-MB-231, 48 h, read-out: GI
A549 = test: Growth inhibition of human A549/ATCC cells at 10 uM after 48 hrs by SRB assay; details: A549, 48 h, read-out: GI
[20] = Growth inhibition of human Caki1 cells at 10 uM after 48 hrs by SRB assay; details: CAKI-1, 48 h, read-out: GI
SN12C = test: Growth inhibition of human SN12C cells at 10 uM after 48 hrs by SRB assay; details: read-out: GI
786-0 = test: Growth inhibition of human 786-0 cells at 10 uM after 48 hrs by SRB assay; details: 786-0, 48 h, read-out: GI
K562 = test: Growth inhibition of human K562 cells at 10 uM after 48 hrs by SRB assay; details: K562, 48 h, read-out: GI
CCRF-CEM = test: Growth inhibition of human CCRF-CEM cells at 10 uM after 48 hrs by SRB assay; details: read-out: GI

COc1cccc(Nc2nccc(Nc3ccc4[nH]ncc4c3)n2)c1
inhibition of growth at 10 µM [1]: 181% | inhibition of growth at 10 µM (A498): 87% | inhibition of growth at 10 µM (NCI-H23): 129% | inhibition of growth at 10 µM (T47D): 152% | inhibition of growth at 10 µM (MDA-MB-435): 178% | inhibition of growth at 10 µM (EKVX): 66% | inhibition of growth at 10 µM [2]: 89% | inhibition of growth at 10 µM (NCI-H460): 168% | inhibition of growth at 10 µM [3]: 76% | inhibition of growth at 10 µM [4]: 107% | inhibition of growth at 10 µM [5]: 111% | inhibition of growth at 10 µM (MDA-MB-468): 145% | inhibition of growth at 10 µM [6]: 127% | inhibition of growth at 10 µM (KM12): 144% | inhibition of growth at 10 µM [7]: 111% | inhibition of growth at 10 µM [8]: 160% | inhibition of growth at 10 µM [9]: 82% | inhibition of growth at 10 µM [10]: 159% | inhibition of growth at 10 µM (ACHN): 103% | inhibition of growth at 10 µM (M14): 174% | inhibition of growth at 10 µM (SK-MEL-28): 143% | inhibition of growth at 10 µM [11]: 70% | inhibition of growth at 10 µM (NCI-H322M): 93% | inhibition of growth at 10 µM [12]: 132% | inhibition of growth at 10 µM (Malme-3M): 149% | inhibition of growth at 10 µM (SK-MEL-5): 184% | inhibition of growth at 10 µM [13]: 162% | inhibition of growth at 10 µM (SR): 111% | inhibition of growth at 10 µM [14]: 181% | inhibition of growth at 10 µM [15]: 162% | inhibition of growth at 10 µM [16]: 86% | inhibition of growth at 10 µM [17]: 157% | inhibition of growth at 10 µM (SK-MEL-2): 137% | inhibition of growth at 10 µM [18]: 140% | inhibition of growth at 10 µM [19]: 124% | inhibition of growth at 10 µM (MCF7): 151% | inhibition of growth at 10 µM (MDA-MB-231): 85% | inhibition of growth at 10 µM (A549): 168% | inhibition of growth at 10 µM [20]: 131% | inhibition of growth at 10 µM (SN12C): 80% | inhibition of growth at 10 µM (786-0): 112% | inhibition of growth at 10 µM (K562): 110%

Clc1ccc(Nc2nccc(Nc3ccc4[nH]ncc4c3)n2)cc1
inhibition of growth at 10 µM [1]: 75% | inhibition of growth at 10 µM (A498): 61% | inhibition of growth at 10 µM (NCI-H23): 54% | inhibition of growth at 10 µM (T47D): 70% | inhibition of growth at 10 µM (MDA-MB-435): 44% | inhibition of growth at 10 µM (EKVX): 33% | inhibition of growth at 10 µM [2]: 12% | inhibition of growth at 10 µM (NCI-H460): 59% | inhibition of growth at 10 µM [3]: 22% | inhibition of growth at 10 µM [4]: 6% | inhibition of growth at 10 µM [5]: 61% | inhibition of growth at 10 µM (MDA-MB-468): 66% | inhibition of growth at 10 µM [6]: 60% | inhibition of growth at 10 µM (KM12): 91% | inhibition of growth at 10 µM [7]: 34% | inhibition of growth at 10 µM [8]: 51% | inhibition of growth at 10 µM [9]: 65% | inhibition of growth at 10 µM [10]: 50% | inhibition of growth at 10 µM (ACHN): 53% | inhibition of growth at 10 µM (M14): 56% | inhibition of growth at 10 µM (SK-MEL-28): 20% | inhibition of growth at 10 µM [11]: 32% | inhibition of growth at 10 µM (NCI-H322M): 25% | inhibition of growth at 10 µM [12]: 77% | inhibition of growth at 10 µM (Malme-3M): 12% | inhibition of growth at 10 µM (SK-MEL-5): 74% | inhibition of growth at 10 µM [13]: 83% | inhibition of growth at 10 µM (SR): 97% | inhibition of growth at 10 µM [14]: 78% | inhibition of growth at 10 µM [15]: 48% | inhibition of growth at 10 µM [16]: 24% | inhibition of growth at 10 µM [17]: 66% | inhibition of growth at 10 µM [18]: 82% | inhibition of growth at 10 µM [19]: 53% | inhibition of growth at 10 µM (MCF7): 75% | inhibition of growth at 10 µM (MDA-MB-231): 31% | inhibition of growth at 10 µM (A549): 50% | inhibition of growth at 10 µM (CCRF-CEM): 95% | inhibition of growth at 10 µM [20]: 48% | inhibition of growth at 10 µM (SN12C): 48% | inhibition of growth at 10 µM (786-0): 43% | inhibition of growth at 10 µM (K562): 108%

Fc1ccc(Nc2nccc(Nc3ccc4[nH]ncc4c3)n2)cc1
inhibition of growth at 10 µM [1]: 54% | inhibition of growth at 10 µM (A498): 51% | inhibition of growth at 10 µM (NCI-H23): 27% | inhibition of growth at 10 µM (T47D): 71% | inhibition of growth at 10 µM (MDA-MB-435): 25% | inhibition of growth at 10 µM (EKVX): 29% | inhibition of growth at 10 µM [2]: 26% | inhibition of growth at 10 µM (NCI-H460): 40% | inhibition of growth at 10 µM [3]: 12% | inhibition of growth at 10 µM [4]: 1% | inhibition of growth at 10 µM [5]: 32% | inhibition of growth at 10 µM (MDA-MB-468): 53% | inhibition of growth at 10 µM [6]: 38% | inhibition of growth at 10 µM (KM12): 76% | inhibition of growth at 10 µM [7]: 41% | inhibition of growth at 10 µM [8]: 27% | inhibition of growth at 10 µM [9]: 67% | inhibition of growth at 10 µM [10]: 34% | inhibition of growth at 10 µM (ACHN): 47% | inhibition of growth at 10 µM (M14): 38% | inhibition of growth at 10 µM (SK-MEL-28): 11% | inhibition of growth at 10 µM [11]: 15% | inhibition of growth at 10 µM (NCI-H322M): 27% | inhibition of growth at 10 µM [12]: 74% | inhibition of growth at 10 µM (Malme-3M): 3% | inhibition of growth at 10 µM (SK-MEL-5): 66% | inhibition of growth at 10 µM [13]: 61% | inhibition of growth at 10 µM (SR): 62% | inhibition of growth at 10 µM [14]: 59% | inhibition of growth at 10 µM [15]: 31% | inhibition of growth at 10 µM [16]: 22% | inhibition of growth at 10 µM [17]: 29% | inhibition of growth at 10 µM (SK-MEL-2): 24% | inhibition of growth at 10 µM [18]: 59% | inhibition of growth at 10 µM [19]: 44% | inhibition of growth at 10 µM (MCF7): 37% | inhibition of growth at 10 µM (MDA-MB-231): 21% | inhibition of growth at 10 µM (A549): 43% | inhibition of growth at 10 µM [20]: 51% | inhibition of growth at 10 µM (SN12C): 40% | inhibition of growth at 10 µM (786-0): 32% | inhibition of growth at 10 µM (K562): 61%
